Measured values: patent US20250230215A1, “IMMUNE CELLS EXPRESSING GLUCOSE TRANSPORTER 5 (GLUT5) AND COMPOSITIONS AND METHODS INCLUDING THE SAME” (Memorial Sloan-Kettering Cancer Center, priority 2021, published 2025)
≈ marks a conversion by molar mass, not a printed value.

Tests used:
KHK = molecular target: T1, KHK (Homo sapiens, UniProt P50053); assay: 13C NMR of [2-13C]F1P in HepG2 cell extract with KHKi treatment; type: cell-based; details: treatment at 4 hr in vitro
T1 construct: endogenous in cells; host or cells: HepG2 cells
T1 sequence (P50053 1-298): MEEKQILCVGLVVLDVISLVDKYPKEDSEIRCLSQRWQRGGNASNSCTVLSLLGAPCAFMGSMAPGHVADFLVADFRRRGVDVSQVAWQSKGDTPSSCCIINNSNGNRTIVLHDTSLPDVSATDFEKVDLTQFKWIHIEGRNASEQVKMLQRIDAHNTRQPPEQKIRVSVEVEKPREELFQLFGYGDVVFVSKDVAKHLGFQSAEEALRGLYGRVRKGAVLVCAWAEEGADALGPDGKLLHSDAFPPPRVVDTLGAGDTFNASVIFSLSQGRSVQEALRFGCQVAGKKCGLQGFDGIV
Excerpt: FIGS. 11A-11C provide fructose converted to fructose-1-phosphate (F1P) and later to lactate in vivo measured in transformed hepatocytes (HepG2 cells) using [2-^13C] fructose. FIG. 11A provides ^13C NMR spectra of media containing [2-^13C] fructose exposed to HepG2 cells. FIG. 11B provides a quantification of fructose consumption by HepG2.
Translation of novel hyperpolarized probes into in vivo animal models represents a great technical advance in the exploration of the modulate metabolism induced by GLUT5-OV. Using the optimized probe formulation for HP fructose, the metabolic conversion of fructose is explored in vivo in the liver of wild type B6 mice, as previously shown. […] [2-^13C]F1P resonates downfield of the C2 pyranose resonance; in Example 1, this conversion was measured in transformed hepatocytes (HepG2 cells, FIG. 11) using [2-^13C] fructose. When further converted, C2 lactate is generated (resonating at 70 ppm) from fructose and this has been detected previously in vivo derived from HP glucose (Rodrigues et al. Nat Med 20, 93-97 (2014)) and pyruvate (Park et al. Magn Reson Med 75, 973-984 (2016)). All imaging studies are conducted under IACUC-approved protocol #13-12-019. Briefly, mice are imaged using a 3T Bruker MRI equipped with a dual tune ^1H/^13C volume coil. […] This is then extracted and labeled metabolites are measured by LC/MS and NMR. […]

[1] = Pharmacokinetic analysis of the KHKi in vivo; parameters: species or system mice; details: mouse
[2] = Blood, tumor and liver fructose after IP injection of fructose in B16 tumor bearing mice; type: in vivo
Experimental: Further this supports that HP fructose reaches the tumor and provides a platform for imaging.
In order to determine the effect of fructose addition into GLUT5-OV T cells in vivo, the assay is optimized for delivering fructose into the tumor microenvironment. Specifically, three methods are tested, including: (i) intraperitoneal (IP) and (ii) intravenous (IV) injections of fructose, and (iii) water bottle with high-fructose corn syrup (HFCS). IP and IV injections (4 g/kg) are conducted daily and 25% HFCS in water is provided for three weeks; twice a week during this time the fructose level in circulating blood is measured and an endpoint tumor fructose measurement is taken. A B16 melanoma mouse model is utilized. Briefly, B16 cells (2×10^5) are engrafted subcutaneously into C57BL/6 mice and assayed on Day 7 post-tumor-engraftment. In a second cohort of mice, with the same conditions, co-administration of the KHKi^53 used in Example 3 is performed to block the uptake of the liver and small intestine (the predominant sites of fructose uptake and subsequent phosphorylation by KHK). As shown in Example 1, a single IP injection of fructose was piloted and both the tumors and liver were extracted after 1 hr (FIG. 12). […] Given this PK data, this dose of KHKi is explored using multiple routes of delivery. Specially, a dose of 10 mg/kg was used and administered IP at the same time as the fructose delivery. Fructose concentration is measured in the circulating blood as well as the endpoint tumor with all 3 delivery methods (n=10 mice per group, total of 80 mice) utilizing a standard kit assay. See Goncalves et al. Science 363, 1345-1349 (2019). Taken together, these experiments provide the necessary data to determine which fructose delivery method is best for the remaining experiments.
Results, potential challenges and alternative solutions: In some embodiments, high dose injections of fructose allows for a transient but substantial increase in blood as well as tumor fructose levels (>2 mM). It was found by Applicant that with a single IP injection of fructose the blood concentration can be raised to >10 mM and tumor concentration can be raised to >2 mM. The dosing schedule relative to T-cell action is further optimized. It is possible that the fructose levels of tumors can not be further elevated in vivo due to the action of the liver and gluconeogenesis. […] This is readily in the range of detection for HP MRI. It is possible that HP lactate can not be detected in tumors from fructose due to the cellularity. At the minimum, however, HP F6P can be detected, which was previously detected in tumors that overexpress GLUT5; this informs on the degree of fructose metabolism into glycolysis. […]

[3] = system: red blood cell pyruvate kinase; details: over a broad range of PKLR genotypes; cited from earlier work
PKM2 = PKM2 (Homo sapiens, UniProt P14618); details: PKM2 activation; cited from earlier work
PKM2, sequence (P14618 whole entry): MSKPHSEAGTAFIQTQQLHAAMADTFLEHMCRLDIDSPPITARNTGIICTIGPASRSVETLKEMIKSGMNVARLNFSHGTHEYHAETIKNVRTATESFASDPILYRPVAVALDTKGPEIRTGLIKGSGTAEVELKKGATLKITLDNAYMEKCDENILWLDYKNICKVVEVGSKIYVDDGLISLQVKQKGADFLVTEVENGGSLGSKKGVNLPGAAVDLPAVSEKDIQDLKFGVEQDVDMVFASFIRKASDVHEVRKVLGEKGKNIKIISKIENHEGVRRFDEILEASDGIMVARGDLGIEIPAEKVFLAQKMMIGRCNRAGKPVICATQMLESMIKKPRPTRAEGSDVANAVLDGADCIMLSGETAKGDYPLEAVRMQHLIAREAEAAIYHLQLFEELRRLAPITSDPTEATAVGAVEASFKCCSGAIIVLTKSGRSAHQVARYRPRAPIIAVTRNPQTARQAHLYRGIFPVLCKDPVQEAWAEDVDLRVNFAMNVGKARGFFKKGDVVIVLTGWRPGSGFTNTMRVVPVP

[4] = Hyperpolarized lifetime and polarization of HP fructose probes; type: physicochemical
Excerpt: FIG. 9A provides the mechanism for transport by GLUT5 and the first step of metabolism of fructose to fructofuranose-6-phosphate by hexokinase. FIG. 9B provides a T2-weighted image of a transgenic model of prostate cancer (TRAMP) mouse with tumor only on the right side of the prostate. Metabolic images of total hyperpolarized [2-^13C] fructose resonances (FIG. 9C) and the composite 0-fructofuranose-6-phosphate and β-fructofuranose (FIG. 9D) are shown overlaid on the T2 weighted image. Resonances corresponding to the β-fructopyranose and composite p-fructofuranose-6-phosphate and p-fructofuranose are shown in the corresponding spectral array (FIG. 9E). FIGS. 9A-9E adapted from Keshari et al. J Am Chem Soc. 2009 Dec. 9; 131(48):17591-6. […] An unassigned, spurious, low signal-to-noise resonance appears at 115 ppm. FIG. 9F provides a synthetic scheme for U-^2H-[2-^13C] fructose. The C2 is annotated by an C. FIG. 9G provides representative dynamic spectra of HP [2-^13C] fructose dissolved in D2O and HP U-^2H-[2-^13C] fructose dissolved in D20. Both solutions were approximately 30 mM and spectra acquired using 5° flip angle every 3 s.
Enhancement of hyperpolarized lifetimes using D2O solvation and application to HP fructose: In previous experiments, the necessary strategies and combined methods to develop not only novel probes for HP MRI but also bolus tracing experiments to confirm biochemistry in vivo. See Salamanca-Cardona et al. Cell Metab 26, 830-841 e833 (2017). While many molecular strategies have been developed for HP MRI, they generally suffer from short lifetimes (≤10 s) making flux through pathways of interest difficult to visualize in vivo. […] See Keshari et al. J Am Chem Soc 131, 17591-17596 (2009). In recent work, It was shown by the Applicant that utilization of rapid exchange between H2O and D2O can dramatically increase the lifetimes of the HP probes by greatly reducing dipolar relaxation. See Cho et al. J Magn Reson 295, 57-62 (2018). As such, a synthesis was developed for [2-^13C,U-^2H7] fructose at gram scale (FIG. 9F) as well as a preparation to hyperpolarize it. […]

[5] = PBS, pH 7.4; cited from earlier work
[6] = single IP injection of fructose

**Q.** Which “change in F1P” value (KHK) does the source give for `N#Cc1c(C(F)(F)F)cc(N2CCN(CCO)CC2)nc1N1CCCC(CO)C1` (centres unmarked) [KHKi, 6-(4-(2-Hydroxyethyl)piperazin-1-yl)-2-(3-(hydroxymethyl)-piperidin-1-yl)-4-(trifluoromethyl)nicotinonitrile] here?
**A.** Its value is “decrease in F1P”.

**Q.** And the Cmax ([1]; 10 mg/kg, approximate conversion)?
**A.** The Cmax was ~1 µM.

**Q.** And the Cmax ([1]; KHKi 10 mg/kg)?
**A.** Its Cmax is 475 ng/mL.

**Q.** What about the half-life ([1]; KHKi 10 mg/kg) of the same compound?
**A.** The half-life was 2 h.

**Q.** And the “extension of blood half-life of fructose” value ([2]; first attempt with the KHKi)?
**A.** Its value is 50%.

**Q.** What about the “tumor fructose with KHKi” value ([2]; single dose of KHKi with single IP injection of fructose, tumors extracted after 1 hr) of the same compound?
**A.** The value was “further enhanced”.

**Q.** With `O=C(c1ccc(NS(=O)(=O)c2cccc3cccnc23)cc1)N1CCN(CC2CC2)CC1` [AG 348] as the compound, how does the “effect on red blood cell pyruvate kinase” value [3] read?
**A.** The value was “increases enzymatic activity, protein stability, and ATP levels”.

**Q.** Which AC90 (PKM2) does the source give for `Nc1cccc(S(=O)(=O)N2CCCN(S(=O)(=O)c3ccc4c(c3)OCCO4)CC2)c1` [DASA-58] here?
**A.** The AC90 was 680 nM.

**Q.** With `[2H]C([2H])(O)[13C](=O)[C@@]([2H])(O)[C@]([2H])(O)[C@]([2H])(O)C([2H])([2H])O` [[2-^13C,U-^2H7] fructose] as the compound, how does the achieved polarization [4] read?
**A.** Its achieved polarization is “greater than 10%”.

**Q.** And the hyperpolarized lifetime ([4]; D2O solvation)?
**A.** Its hyperpolarized lifetime is 1.5 min.

**Q.** What about the “lifetime relative to previously shown” value ([4]; versus HP [2-13C] fructose) of the same compound?
**A.** The value was 6 times.

**Q.** With `Cn1c2cc([S+](C)[O-])sc2c2cnn(Cc3cccc(N)c3)c(=O)c21` (centres unmarked) [TEPP-46] as the compound, how does the aqueous solubility [5] read?
**A.** Its aqueous solubility is 79.5 µM (≈ 29.6 µg/mL).

**Q.** For `O=C(CO)[C@@H](O)[C@H](O)[C@H](O)CO` [fructose], which “blood concentration of fructose” value [2, 6] is on record?
**A.** The value was > 10000 µM.

**Q.** And the “tumor concentration of fructose” value [2, 6]?
**A.** The value was > 2 mM.
